pIC50: −log10 of the molar value. Like-named read-outs stand apart in the source and are kept apart here.
What was measured:
[1] = tested on: apomorphine induced gnawing; experiment: Inhibition of apomorphine induced gnawing in the rat; assay type: in vivo, rat (Sprague-Dawley); details: po, apomorphine hydrochloride 2.0 mg/kg i.v., read-out: threshold dose (100% inhibition of apomorphine induced gnawing)
Description: The compound of formula I inhibits apomorphine induced gnawing in the rat in a method based on that of P.A. Janssen et al., Arzneim.-Forsch. (Drug Res.) 10, 1003-1005 (1960):
Groups of 3-6 rats (males and females, 90-160 g, Sprague-Dawley, Suddeutsche Tierfarm, Tuttlingen, West Germany) are treated with the test-drug orally and after a pre-determined time further treated with 2.0 mg/kg i.v. apomorphine hydrochloride in aq. solution. They are then placed in individual cages lined with corrugated paper. At times 10, 20 and 30 minutes after the apomorphine each rat is observed for 1 minute. If gnawing occurred during an observation period, that observation is scored as positive. Thus, three scores are obtained from each rat. The supra-maximal dose of apomorphine invariably produces gnawing in all controls at all observation times. Out of the total number of observations per treatment group, the number of positives is noted. The dose of drug which causes a 100% inhibition of the apomorphine induced gnawing is taken as the threshold dose. After a pretreatment time of 3 hours the threshold dose for the compound of formula I is 0.2 mg/kg p.o., after a pretreatment time of 6 hours also 0.2 mg/kg p.o.

Tolerability in mice = details: mouse, in vivo, po, well tolerated up to, read-out: well tolerated dose
Description: (§1) The compound of formula I is well tolerated in mice up to 100 mg/kg p.o. The non-toxic dose level in the dog after a 4 week treatment is 3 mg/kg/day p.o.

D-2 receptor sites = target: T1, D-2 receptor sites (Bos taurus, UniProt P20288); experiment: D-2 receptor binding, 3H-spiperone binding assay in calf striatal membranes
T1 construct: Calf striatal membranes are prepared as described above; from tissue; host or cells: calf brain striatum, membrane homogenate
T1 sequence (P20288 whole entry): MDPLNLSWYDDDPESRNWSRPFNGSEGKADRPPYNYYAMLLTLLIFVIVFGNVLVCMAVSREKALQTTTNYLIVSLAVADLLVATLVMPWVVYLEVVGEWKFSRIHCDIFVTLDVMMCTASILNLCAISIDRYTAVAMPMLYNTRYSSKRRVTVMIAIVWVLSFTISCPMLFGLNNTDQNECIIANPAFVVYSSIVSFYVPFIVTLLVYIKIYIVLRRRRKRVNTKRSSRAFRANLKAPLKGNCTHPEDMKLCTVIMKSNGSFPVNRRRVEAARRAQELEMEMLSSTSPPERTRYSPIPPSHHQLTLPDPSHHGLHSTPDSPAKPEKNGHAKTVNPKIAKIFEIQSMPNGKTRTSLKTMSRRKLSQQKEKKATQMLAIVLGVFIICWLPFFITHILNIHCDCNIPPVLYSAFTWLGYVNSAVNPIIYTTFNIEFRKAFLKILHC
Description: (§2) Furthermore the compound of formula I binds to dopamine receptors as characterised by the displacement of ^3 H-ligands from their respective binding sites in the homogenates of brain tissue.
(§3) Fresh calf brain striatal tissue is homogenized in a 20 fold volume of Tris-HCl buffer (50 mM, pH 7.4 at 25° C.) using a Polytron tissue homogenizer. The homogenate is centrifuged for 10 minutes at 50,000 g (4° C.) and the supernatant discarded. The pellets are resuspended in the same buffer as before. The suspension is incubated for 20 minutes at 37° C. and then recentrifuged as before. The resulting pellets are stored frozen at -20° until their use in the binding assay. For the binding assay the pellets are resuspended in Tris-HCl buffer (50 mM, pH 7.4 at 37° C., containing 120 mM NaCl) in such a way that the final volume of 2 ml contains membranes corresponding to approximately 5 mg original tissue weight. ^3 H-SCH 23390 is added to give a final concentration of 0.1 nM. The assays for the determination of nonspecific binding additionally contain 1 μM unlabelled SCH 23390. The test compound is added to give 5 to 9 different concentrations. […] The filters are monitored for radioactivity through liquid scintillation counting. […]
The high affinity of the compound for D-2 receptor sites may be determined in the ^3 H-spiperone binding assay [cf. […]

D-1 receptor sites = target: T2, D-1 receptor sites (Bos taurus, UniProt Q95136); experiment: D-1 receptor binding, displacement of 3H-SCH 23390 in calf striatal membranes
T2 construct: Fresh calf brain striatal tissue is homogenized; from tissue; host or cells: calf brain striatum, membrane homogenate
T2 sequence (Q95136 whole entry): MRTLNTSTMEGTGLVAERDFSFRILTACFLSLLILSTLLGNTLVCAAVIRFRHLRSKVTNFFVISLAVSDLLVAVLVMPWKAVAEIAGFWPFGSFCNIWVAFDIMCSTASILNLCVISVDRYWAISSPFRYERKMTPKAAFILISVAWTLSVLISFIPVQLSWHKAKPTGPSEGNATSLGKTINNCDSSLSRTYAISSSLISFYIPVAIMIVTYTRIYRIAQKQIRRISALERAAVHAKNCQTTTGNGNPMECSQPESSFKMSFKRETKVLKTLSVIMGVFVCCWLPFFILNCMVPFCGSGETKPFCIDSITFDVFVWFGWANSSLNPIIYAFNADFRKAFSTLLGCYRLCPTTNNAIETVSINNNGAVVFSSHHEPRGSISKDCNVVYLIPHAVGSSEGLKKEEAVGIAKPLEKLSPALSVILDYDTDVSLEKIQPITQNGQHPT
Description: as §2
The affinity to D-1 receptor sites [cf. W. Billard et al., Life Sci. 35, 1885-1893 (1984)] using ^3 H-(R)-(+)-8-chloro-7-hydroxy-3-methyl-5-phenyl-2,3,4,5-tetrahydro-1H-3-benzazepine (^3 H-SCH 23390) as ligand is determined as follows:
as §3, with “23390.” for “23390. The test compound is added to give 5 to 9 different concentrations.”

serum prolactin levels [2] = experiment: Serum prolactin levels in male rats after subcutaneous administration (radioimmunoassay); assay type: in vivo, rat (male OFA); details: s.c., only at high doses
Description: E. Fluckiger et al., Experientia 34, 1330-1331 (1978)]:
Male OFA-rats of about 250 g body weight are brought to the experimental room 24 hours before the actual experiment. They are kept in appropriate cages by tens. After the experimental treatment they are kept singly. Food and water are freely available. Various doses of the compound or the vehicle are administered s.c. to groups of 5 animals. In this standard experiment the animals are decapitated 4 hours after treatment. The sera of the individual animals are deep frozen until assayed. Prolactin is then measured in aliquots by radioimmunoassay. The serum prolactin levels are expressed in ng/ml in terms of the prolactin standard NIAMD-RPrl-RP1.

[3] = tested on: rats with an unilateral 6-OHDA (6-hydroxydopamine) induced lesion of the substantia nigra; experiment: Rotational behaviour in rats with unilateral 6-OHDA induced lesion of the substantia nigra (Ungerstedt rat); assay type: in vivo
Description: For instance, the compound of formula I induces in rats with an unilateral 6-OHDA (6-hydroxydopamine) induced lesion of the substantia nigra [i.e. Ungerstedt rat, c.f.

serum prolactin levels [4] = tested on: serum prolactin levels; set-up: species or system rat (male Sprague-Dawley); details: rat, in vivo
Description: The test is performed as follows:
Male rats (120-140 g, Sprague-Dawley, Suddeutsche Tierfarm, Tuttlingen, West Germany) are maintained on a 12:12 light dark cycle (lights on 06.00, off 18.00 hrs). On the evening before the experiment, animals are marked for identification purposes and caged in groups of 4 into makrolon (type 3) cages. The next morning, the rats in each group receive 10 mg/kg p.o. of the test drug or placebo (normal saline solution+2 drops HCl) 2, 4, 8, 16 or 24 hours before they are killed by decapitation. Blood samples are collected in plastic tubes, centrifuged to obtain the serum, which is then stored at -20° C. until assayed for prolactin. Prolactin in the serum is measured by radioimmunoassay according to that of A. Hausler et al., J. Ultrastruct. Res. 64, 74 (1978).

[5] = Non-toxic dose level in the dog after 4 week treatment; details: in vivo, po, after a 4 week treatment
Description: as §1

[6] = Cataleptogenic activity in rats; assay type: in vivo, rat (Sprague-Dawley); details: rat, in vivo, po, read-out: ratio of catalepsy threshold dose to dose required to antagonize apomorphine induced gnawing
Description: (§4) (Drug Res.) 21, 252-255 (1971). In this test groups of 4-8 rats (120-170 g, Sprague-Dawley, females and males, Suddeutsche Tierfarm, Tuttlingen, West Germany) receive the test substance orally. At specified times after treatment the catalepsy of each rat is estimated by placing the forepaws on a 7 cm high block. The time for which the animal remains in this unnatural position is measured up to a maximum of 45 seconds. The threshold dose is the final dose, which still causes a catalepsy-median of >10 seconds. The compound of formula I has a threshold dose of 5 mg/kg p.o. determined during an 8 hour measurement period. This is a dose which is at least 25 times higher than that required to antagonize apomorphine induced gnawing.

catalepsy = experiment: Cataleptogenic activity in rats; assay type: in vivo, rat (Sprague-Dawley); details: p.o.
Description: as §4

Structure (SMILES)	ED100 ([1]; pretreatment time 6 hours)	MTD (Tolerability in mice)	pIC50 (D-2 receptor sites)	pIC50 (D-1 receptor sites)	dose that influences serum prolactin levels (serum prolactin levels [2])	rotations contralateral to the lesion ([3]; 0.5 mg/kg p.o., within 7 hours)	rotational behaviour (in words) ([3]; rats, relatively low doses, p.o.)	effect on prolactin levels, oral administration (overall) (serum prolactin levels [4])	effect on serum prolactin levels (serum prolactin levels [4]; po, 10 mg/kg)	ED100 ([1]; pretreatment time 3 hours)	NOAEL at 672 h [5]	selectivity ratio [6]	cataleptogenic activity (in words) (catalepsy)	threshold dose (catalepsy-median of >10 seconds) (catalepsy; 8 hour measurement period)
O=C(CCCN1CCC(O)(c2ccc(Cl)cc2)CC1)c1ccc(F)cc1 [haloperidol, reference compound]	0.2 mg/kg													
CCC(C)(CC)C(=O)N[C@H]1C[C@@H]2c3cccc4[nH]c(C)c(c34)C[C@H]2N(C)C1 [compound of formula I, N-[(5R,8S,10R)-2,6-dimethyl-ergoline-8-yl]-2-ethyl-2-methyl-butanamide]	0.2 mg/kg	≥ 100 mg/kg	~7.70	~7.30	≥ 10 mg/kg	950 rotations	long lasting rotational behaviour contralateral to the lesion	only weak effects on prolactin levels	declines (24 hours) towards normal	0.2 mg/kg	3 mg/kg/day	≥ 25	only a weak cataleptogenic activity	5 mg/kg p.o.
